Measurements as given in patent publication US20240124460A1, “METHODS AND COMPOSITIONS FOR TARGETED PROTEIN DEGRADATION” (Ranok Therapeutics (Hangzhou) Co. Ltd., priority 2020, published 2024).
Where two headings read alike, the source gives them in different places.

What was measured:
[1] = test system: U-87 MG human glioblastoma; assay: U87 MG CCK-8 proliferation assay; assay type: cell-based; conditions: U-87 MG cells, read-out: U87MG CCK-8
How it was run: (§1)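 Cells grown per ATCC recommendations were treated with 3-fold serial compound dilutions from 20 μM to 1.02 nM. CCK-8 absorbance was converted to % inhibition against DMSO-treated cells, with cell-free medium containing DMSO as the blank.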

HSP90α protein = target: T1, HSP90α protein (Homo sapiens, UniProt P07900); assay: HSP90α-binding FP (BODIPY) assay; conditions: FP competition with BODIPY-labeled RNK04010
T1 construct: purchased BPS Bioscience #50298
Description: Binding of test compounds to HSP90α protein was measured by fluorescent polarization (FP) using the HSP90α (N-terminal) Assay Kit (BPS Bioscience, #50298), following the manufacturer's instructions, except as noted. Fluorescently labeled HSP90-binding compounds, either the provided FITC-geldanamycin (5 nM final concentration) or RNK04010, a triazolone-based HSP90 binding small molecule labeled with BODIPY through a piperazine-phenyl linker (5 nM final concentration) were employed. A 2.5-fold serial dilution of each test compound ranging from 20 μM to 5.2 nM was assayed for binding to HSP90α. After the final step of adding HSP90α protein to each assay well, plates were mixed by brief shaking, incubated at 25° C. for 120 min for FITC-geldanamycin or 300 min for RNK04010, and fluorescence was measured using a PerkinElmer EnVision Plate Reader.

[2] = test system: MV-4-11 human acute myeloid leukemia; assay: MV-4-11 CCK-8 proliferation assay; assay type: cell-based; conditions: MV-4-11 cells, 72 hr
How it was run: as §1

EC50 ([1]; Homo sapiens, U-87 MG, 72 h) [µM]	IC50 (HSP90α protein) [µM]	EC50 ([2]; Homo sapiens, MV4-11) [µM]	Compound	EC50 ([1]; 72 hr) [µM]	EC50 [2] [µM]
0.1 to 1	< 0.1	< 0.1	CCOc1cc(N2CCC(C(=O)N3CCN(Cc4ccc(-n5c(O)nnc5-c5cc(CC)c(O)cc5O)cc4)CC3)CC2)ccc1Nc1ncc2c(n1)N(S(C)(=O)=O)c1ccccc1C(=O)N2C [Compound 086, 2-((2-ethoxy-4-(4-(4-(4-(3-(5-ethyl-2,4-dihydroxyphenyl)-5-hydroxy-4H-1,2,4-triazol-4-yl)benzyl)piperazine-1-carbonyl)piperidin-1-yl)phenyl)amino)-5-methyl-11-(methylsulfonyl)-5,11-dihydro-6H-benzo[e]pyrimido[5,4-b][1,4]diazepin-6-one]		
< 0.1	< 0.1	< 0.1	CCOc1cc(N2CCC(C(=O)N3CCC(CN4CCN(Cc5ccc(-n6c(C(=O)NC7(C)CC7)nnc6-c6cc(CC)c(O)cc6O)cc5)CC4)CC3)CC2)ccc1Nc1ncc2c(n1)N(S(C)(=O)=O)c1ccccc1C(=O)N2C [Compound 083, 4-(4-((4-((1-(1-(3-ethoxy-4-((5-methyl-11-(methylsulfonyl)-6-oxo-6,11-dihydro-5H-benzo[e]pyrimido[5,4-b][1,4]diazepin-2-yl)amino)phenyl)piperidine-4-carbonyl)piperidin-4-yl)methyl)piperazin-1-yl)methyl)phenyl)-5-(5-ethyl-2,4-dihydroxyphenyl)-N-(1-methylcyclopropyl)-4H-1,2,4-triazole-3-carboxamide]		
> 1	> 1	0.1 to 1	CCOc1cc(N2CCC(C(=O)N3CCC(Cc4ccc(CN(C)Cc5ccc(-n6c(C(=O)NCC(F)(F)F)nnc6-c6cc(C)c(O)cc6O)cc5)cc4)CC3)CC2)ccc1Nc1ncc2c(n1)N(S(C)(=O)=O)c1ccccc1C(=O)N2C [Compound 100, 5-(2,4-dihydroxy-5-methylphenyl)-4-(4-(((4-((1-(1-(3-ethoxy-4-((5-methyl-11-(methylsulfonyl)-6-oxo-6,11-dihydro-5H-benzo[e]pyrimido[5,4-b][1,4]diazepin-2-yl)amino)phenyl)piperidine-4-carbonyl)piperidin-4-yl)methyl)benzyl)(methyl)amino)methyl)phenyl)-N-(2,2,2-trifluoroethyl)-4H-1,2,4-triazole-3-carboxamide]		
> 1	> 1	0.1 to 1	CCOc1cc(N2CCC(C(=O)NCCOCCOCCNC(=O)O[C@H]3CC[C@H](Nc4cc(-n5nc(C(F)(F)F)c6c5CC(C)(C)CC6=O)ccc4C(N)=O)CC3)CC2)ccc1Nc1ncc2c(n1)N(S(C)(=O)=O)c1ccccc1C(=O)N2C [Compound 116, (1R,4R)-4-((2-carbamoyl-5-(6,6-dimethyl-4-oxo-3-(trifluoromethyl)-4,5,6,7-tetrahydro-1H-indazol-1-yl)phenyl)amino)cyclohexyl (2-(2-(2-(1-(3-ethoxy-4-((5-methyl-11-(methylsulfonyl)-6-oxo-6,11-dihydro-5H-benzo[e]pyrimido[5,4-b][1,4]diazepin-2-yl)amino)phenyl)piperidine-4-carboxamido)ethoxy)ethoxy)ethyl)carbamate]		
> 1	< 0.1	0.1 to 1	CCOc1cc(N2CCC(C(=O)NCC3CCN(C(=O)C4CCN(Cc5ccc(-n6c(O)nnc6-c6cc(CC)c(O)cc6O)cc5)CC4)CC3)CC2)ccc1Nc1ncc2c(n1)N(S(C)(=O)=O)c1ccccc1C(=O)N2C [Compound 079, 1-(3-ethoxy-4-((5-methyl-11-(methylsulfonyl)-6-oxo-6,11-dihydro-5H-benzo[e]pyrimido[5,4-b][1,4]diazepin-2-yl)amino)phenyl)-N-((1-(1-(4-(3-(5-ethyl-2,4-dihydroxyphenyl)-5-hydroxy-4H-1,2,4-triazol-4-yl)benzyl)piperidine-4-carbonyl)piperidin-4-yl)methyl)piperidine-4-carboxamide]		
> 1	> 1	0.1 to 1	CCOc1cc(N2CCC(C(=O)N3CCC(Cc4ccc(CN(C)Cc5ccc(-n6c(C(=O)NCC(F)(F)F)nnc6-c6cc(C(C)C)c(O)cc6O)cc5)cc4)CC3)CC2)ccc1Nc1ncc2c(n1)N(S(C)(=O)=O)c1ccccc1C(=O)N2C [Compound 076, 5-(2,4-dihydroxy-5-isopropylphenyl)-4-(4-(((4-((1-(1-(3-ethoxy-4-((5-methyl-11-(methylsulfonyl)-6-oxo-6,11-dihydro-5H-benzo[e]pyrimido[5,4-b][1,4]diazepin-2-yl)amino)phenyl)piperidine-4-carbonyl)piperidin-4-yl)methyl)benzyl)(methyl)amino)methyl)phenyl)-N-(2,2,2-trifluoroethyl)-4H-1,2,4-triazole-3-carboxamide]		
> 1	> 1	0.1 to 1	CCOc1cc(N2CCC(C(=O)NCCOCCOCCNC(=O)O[C@H]3CC[C@H](Nc4cc(-n5nc(C(F)(F)F)c6c5CC(C)(C)CC6=O)ccc4C(N)=O)CC3)CC2)ccc1Nc1ncc2c(n1)N(C)c1ccccc1C(=O)N2C [Compound 120, (1R,4R)-4-((2-carbamoyl-5-(6,6-dimethyl-4-oxo-3-(trifluoromethyl)-4,5,6,7-tetrahydro-1H-indazol-1-yl)phenyl)amino)cyclohexyl (2-(2-(2-(1-(4-((5,11-dimethyl-6-oxo-6,11-dihydro-5H-benzo[e]pyrimido[5,4-b][1,4]diazepin-2-yl)amino)-3-ethoxyphenyl)piperidine-4-carboxamido)ethoxy)ethoxy)ethyl)carbamate]		
0.1 to 1	0.1 to 1	0.1 to 1	CCCc1cc(-c2nnc(O)n2-c2ccc(CN3CCN(CC4CCN(C(=O)C5CCN(c6ccc(Nc7ncc8c(n7)N(C)c7ccccc7C(=O)N8C)c(OCC)c6)CC5)CC4)CC3)cc2)c(O)cc1O [Compound 020, 2-((4-(4-(4-((4-(4-(3-(2,4-dihydroxy-5-propylphenyl)-5-hydroxy-4H-1,2,4-triazol-4-yl)benzyl)piperazin-1-yl)methyl)piperidine-1-carbonyl)piperidin-1-yl)-2-ethoxyphenyl)amino)-5,11-dimethyl-5,11-dihydro-6H-benzo[e]pyrimido[5,4-b][1,4]diazepin-6-one]		
0.1 to 1	0.1 to 1	< 0.1	CCOc1cc(N2CCC(C(=O)N3CCN(Cc4ccc(-n5c(O)nnc5-c5cc(C(C)C)c(O)cc5O)cc4C(F)(F)F)CC3)CC2)ccc1Nc1ncc2c(n1)N(S(C)(=O)=O)c1ccccc1C(=O)N2C [Compound 072, 2-((4-(4-(4-(4-(3-(2,4-dihydroxy-5-isopropylphenyl)-5-hydroxy-4H-1,2,4-triazol-4-yl)-2-(trifluoromethyl)benzyl)piperazine-1-carbonyl)piperidin-1-yl)-2-ethoxyphenyl)amino)-5-methyl-11-(methylsulfonyl)-5,11-dihydro-6H-benzo[e]pyrimido[5,4-b][1,4]diazepin-6-one]		
> 1	> 1	0.1 to 1	CCOc1cc(N2CCC(C(=O)NCCOCCOc3ccc(Nc4ccc(-n5nc(C(F)(F)F)c6c5CC(C)(C)CC6=O)cc4C(N)=O)cc3)CC2)ccc1Nc1ncc2c(n1)N(S(C)(=O)=O)c1ccccc1C(=O)N2C [Compound 067, N-(2-(2-(4-((2-carbamoyl-4-(6,6-dimethyl-4-oxo-3-(trifluoromethyl)-4,5,6,7-tetrahydro-1H-indazol-1-yl)phenyl)amino)phenoxy)ethoxy)ethyl)-1-(3-ethoxy-4-((5-methyl-11-(methylsulfonyl)-6-oxo-6,11-dihydro-5H-benzo[e]pyrimido[5,4-b][1,4]diazepin-2-yl)amino)phenyl)piperidine-4-carboxamide]		
0.1 to 1	0.1 to 1	< 0.1	CCOc1cc(N2CCC(C(=O)N3CCC(CN4CCN(Cc5ccc(-n6c(O)nnc6-c6cc(CC)c(O)cc6O)cc5F)CC4)CC3)CC2)ccc1Nc1ncc2c(n1)N(C)c1ccccc1C(=O)N2C [Compound 019, 2-((2-ethoxy-4-(4-(4-((4-(4-(3-(5-ethyl-2,4-dihydroxyphenyl)-5-hydroxy-4H-1,2,4-triazol-4-yl)-2-fluorobenzyl)piperazin-1-yl)methyl)piperidine-1-carbonyl)piperidin-1-yl)phenyl)amino)-5,11-dimethyl-5,11-dihydro-6H-benzo[e]pyrimido[5,4-b][1,4]diazepin-6-one]		
0.1 to 1	0.1 to 1	< 0.1	CCOc1cc(N2CCC(C(=O)N[C@H](C)c3ccc(CN4CCC(Cc5ccc(-n6c(O)nnc6-c6cc(C(C)C)c(O)cc6O)cc5)CC4)cc3)CC2)ccc1Nc1ncc2c(n1)N(C)c1ccccc1C(=O)N2C [Compound 045, (R)—N-(1-(4-((4-(4-(3-(2,4-dihydroxy-5-isopropylphenyl)-5-hydroxy-4H-1,2,4-triazol-4-yl)benzyl)piperidin-1-yl)methyl)phenyl)ethyl)-1-(4-((5,11-dimethyl-6-oxo-6,11-dihydro-5H-benzo[e]pyrimido[5,4-b][1,4]diazepin-2-yl)amino)-3-ethoxyphenyl)piperidine-4-carboxamide]		

Compound	EC50 ([1]; Homo sapiens, U-87 MG, 72 h) [µM]	IC50 (HSP90α protein) [µM]	EC50 ([2]; Homo sapiens, MV4-11) [µM]	EC50 ([1]; 72 hr) [µM]	EC50 [2] [µM]
(1R,4R)-4-((2-carbamoyl-5-(6,6-dimethyl-4-oxo-3-(trifluoromethyl)-4,5,6,7-tetrahydro-1H-indazol-1-yl)phenyl)amino)cyclohexyl (3-(1-(4-((5,11-dimethyl-6-oxo-6,11-dihydro-5H-benzo[e]pyrimido[5,4-b][1,4]diazepin-2-yl)amino)-3-ethoxyphenyl)piperidine-4-carboxamido)propyl)carbamate [Compound 102]		> 1		> 1	0.1 to 1
